From US20180194762A1 (Pharmacyclics LLC, priority 2017, published 2018) come the findings set out here.

Molecules are shown by their SMILES.

Assay type in all cases: biochemical
One assay addresses T1, Btk (Homo sapiens, UniProt Q06187).
T1 construct: purified from insect cells as a full-length construct containing a N-terminal 6X-His tag; His6 (N); made in house; host or cells: insect cells (Method C)
The assay can be described thus: Btk in vitro inhibitory activity (one of Method A TR-FRET, Method B electrophoretic mobility shift, Method C radiometric filter binding). The settings on record: wild-type Btk; read-out: Btk-WT IC50. A digest of the protocol:
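Three alternative formats were used. A radiometric filter-binding read used 8 nM full-length His-BTK with 0.2 mg/mL poly(Glu-Tyr) 4:1 (C); microfluidic separation of 1 μM FAM-peptide by 1 nM BTK gave IC50 from 12-point curves (B); TR-FRET at Km ATP, 0.5 nM Btk, gave Ki(app)-derived IC50 (A).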

The next assay concerns the target T2, TEC (Homo sapiens, UniProt P42680).
T2 sequence (P42680 1-631): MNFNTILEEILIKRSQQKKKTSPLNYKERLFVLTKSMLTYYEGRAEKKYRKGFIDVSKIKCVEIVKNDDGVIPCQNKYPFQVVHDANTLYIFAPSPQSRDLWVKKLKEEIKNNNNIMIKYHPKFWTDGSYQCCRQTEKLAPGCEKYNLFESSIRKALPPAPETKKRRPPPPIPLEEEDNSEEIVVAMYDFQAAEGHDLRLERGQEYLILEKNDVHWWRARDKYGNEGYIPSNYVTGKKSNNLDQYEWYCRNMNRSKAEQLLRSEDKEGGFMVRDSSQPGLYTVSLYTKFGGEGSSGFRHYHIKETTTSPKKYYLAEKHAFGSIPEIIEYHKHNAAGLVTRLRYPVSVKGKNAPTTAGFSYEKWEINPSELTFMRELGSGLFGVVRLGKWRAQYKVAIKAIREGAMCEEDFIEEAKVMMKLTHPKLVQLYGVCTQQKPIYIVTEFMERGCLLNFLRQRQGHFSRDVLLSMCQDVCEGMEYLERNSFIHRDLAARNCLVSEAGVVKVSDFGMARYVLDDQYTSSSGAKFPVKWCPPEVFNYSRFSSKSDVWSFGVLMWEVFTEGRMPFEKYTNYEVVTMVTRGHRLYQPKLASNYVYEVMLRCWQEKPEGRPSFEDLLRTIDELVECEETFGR
The assay can be described thus: Inhibition of a panel of kinases (in vitro HotSpot kinase assay, 33P-ATP, 1 μM ATP). The settings on record: for IC50: HotSpot kinase assay, 1 μM ATP; for TEC/Btk: ratio of TEC IC50 to Btk IC50 (selectivity). In outline: (§1)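 Radiometric read-out: 33P transfer to a suitable substrate by each purified enzyme, ATP at 1 μM. Values are degree of inhibition.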

A further assay concerns the target T3, panel of kinases (Homo sapiens, UniProt P51813).
T3 sequence (P51813 1-675): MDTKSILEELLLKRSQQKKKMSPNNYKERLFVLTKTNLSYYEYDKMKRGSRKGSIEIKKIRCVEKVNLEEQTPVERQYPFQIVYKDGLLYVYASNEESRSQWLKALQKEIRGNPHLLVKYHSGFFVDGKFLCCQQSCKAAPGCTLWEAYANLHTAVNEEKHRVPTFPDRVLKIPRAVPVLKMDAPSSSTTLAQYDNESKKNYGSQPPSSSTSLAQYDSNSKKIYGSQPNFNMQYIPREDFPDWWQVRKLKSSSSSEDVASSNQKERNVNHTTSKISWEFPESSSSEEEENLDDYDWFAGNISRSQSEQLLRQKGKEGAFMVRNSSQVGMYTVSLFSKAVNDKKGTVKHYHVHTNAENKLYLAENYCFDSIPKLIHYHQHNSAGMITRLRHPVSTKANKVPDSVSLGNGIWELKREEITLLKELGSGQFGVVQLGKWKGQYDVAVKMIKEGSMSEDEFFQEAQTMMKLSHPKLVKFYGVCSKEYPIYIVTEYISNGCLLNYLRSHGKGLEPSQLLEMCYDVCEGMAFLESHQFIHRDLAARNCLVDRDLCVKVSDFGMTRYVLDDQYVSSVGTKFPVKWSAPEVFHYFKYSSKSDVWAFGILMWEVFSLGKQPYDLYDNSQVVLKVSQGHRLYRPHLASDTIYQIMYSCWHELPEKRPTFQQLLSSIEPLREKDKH
The assay can be described thus: Inhibition of a panel of kinases (in vitro HotSpot kinase assay, 33P-ATP, 1 μM ATP), other kinases. As to conditions: BMX wild-type, read-out: BMX-WT IC50. A digest of the protocol: as §1

T1 sequence (Q06187 whole entry): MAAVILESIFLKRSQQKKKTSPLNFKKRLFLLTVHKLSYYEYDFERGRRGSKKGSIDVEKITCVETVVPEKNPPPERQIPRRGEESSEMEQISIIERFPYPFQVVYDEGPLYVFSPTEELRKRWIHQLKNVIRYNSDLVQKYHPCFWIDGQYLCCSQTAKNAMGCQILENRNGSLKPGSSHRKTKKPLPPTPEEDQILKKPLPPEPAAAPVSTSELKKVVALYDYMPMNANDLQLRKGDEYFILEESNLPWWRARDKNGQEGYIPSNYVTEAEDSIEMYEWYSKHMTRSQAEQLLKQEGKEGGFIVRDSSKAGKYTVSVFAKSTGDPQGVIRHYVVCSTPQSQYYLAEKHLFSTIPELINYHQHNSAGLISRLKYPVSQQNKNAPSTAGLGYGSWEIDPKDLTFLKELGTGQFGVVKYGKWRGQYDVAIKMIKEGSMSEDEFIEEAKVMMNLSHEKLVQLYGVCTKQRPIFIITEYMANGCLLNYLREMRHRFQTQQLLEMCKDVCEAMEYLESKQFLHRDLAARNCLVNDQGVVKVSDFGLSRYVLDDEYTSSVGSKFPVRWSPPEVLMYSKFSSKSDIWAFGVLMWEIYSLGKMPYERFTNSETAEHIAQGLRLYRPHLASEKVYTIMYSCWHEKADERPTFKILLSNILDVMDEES

Turning to `C=CC(=O)N1CC[C@@H](Nc2n[nH]c3nccc(-c4ccc(CNC(=O)c5ccccc5)c(F)c4)c23)C1` [Compound 33, (R)—N-(4-(3-((1-acryloylpyrrolidin-3-yl)amino)-1H-pyrazolo[3,4-b]pyridin-4-yl)-2-fluorobenzyl)benzamide], the IC50 at Btk came out at 15 nM; on TEC, 217 nM; at panel of kinases, 25 nM. For the same compound, the TEC/Btk at TEC is recorded as 14.

On to `C=CC(=O)N1CC[C@@H](Nc2n[nH]c3nccc(-c4ccc(CNC(=O)c5ccc(C)cc5)c(F)c4)c23)C1` [Compound 34, (R)—N-(4-(3-((1-acryloylpyrrolidin-3-yl)amino)-1H-pyrazolo[3,4-b]pyridin-4-yl)-2-fluorobenzyl)-4-methylbenzamide], for which the IC50 on Btk came out at 1.76 nM; against TEC it was 55 nM; at panel of kinases it was 16 nM. Further, the TEC/Btk at TEC is listed as 31.

Turning to `O=C(NCc1ccc(-c2ccnc3[nH]nc(N[C@@H]4CCNC4)c23)cc1F)c1ccc(C2CC2)cc1` [Compound 35, 4-cyclopropyl-N-{[2-fluoro-4-(3-{[(3R)-pyrrolidin-3-yl]amino}-1H-pyrazolo[3,4-b]pyridin-4-yl)phenyl]methyl}benzamide], the IC50 at Btk was found to be 505 nM; at TEC, 7000 nM; at panel of kinases, 8480 nM. In addition, the TEC/Btk on TEC turned out to be 14.

As to `CC(C)(C)c1ccc2c(c1)CCN(Cc1ccc(-c3ccnc4[nH]nc(N[C@@H]5CCNC5)c34)cc1F)C2=O` [Compound 36, 6-tert-butyl-2-{[2-fluoro-4-(3-{[(3R)-pyrrolidin-3-yl]amino}-1H-pyrazolo[3,4-b]pyridin-4-yl)phenyl]methyl}-1,2,3,4-tetrahydroisoquinolin-1-one], the IC50 on Btk is 433 nM; against TEC, above 10000 nM; on panel of kinases, above 10000 nM. Further, the TEC/Btk on TEC is reported as above 100.

Turning to `CC(C)(C)c1ccc(C(=O)NCc2ccc(-c3ccnc4[nH]nc(N[C@H]5CCNC5)c34)cc2F)cc1` [Compound 37, 4-tert-butyl-N-{[2-fluoro-4-(3-{[(3S)-pyrrolidin-3-yl]amino}-1H-pyrazolo[3,4-b]pyridin-4-yl)phenyl]methyl}benzamide], the IC50 was 53.9 nM on Btk, above 10000 nM at TEC and 8820 nM on panel of kinases. The TEC/Btk on TEC is given as above 100.

`CC(C)(C)c1ccc2c(c1)CCN(Cc1ccc(-c3ccnc4[nH]nc(N[C@H]5CC[C@H](O)CC5)c34)cc1F)C2=O` [Compound 38, 6-tert-butyl-2-{[2-fluoro-4-(3-{[(11r,4r)-4-hydroxycyclohexyl]amino}-1H-pyrazolo[3,4-b]pyridin-4-yl)phenyl]methyl}-1,2,3,4-tetrahydroisoquinolin-1-one]: the IC50 at Btk, against TEC and at panel of kinases was above 10000 nM each time.

In the case of `CC(C)(C)c1ncc(C(=O)NCc2ccc(-c3ccnc4[nH]nc(N[C@H]5CC[C@H](O)CC5)c34)cc2F)o1` [Compound 39, 2-tert-butyl-N-{[2-fluoro-4-(3-{[(1r,4r)-4-hydroxycyclohexyl]amino}-1H-pyrazolo[3,4-b]pyridin-4-yl)phenyl]methyl}-1,3-oxazole-5-carboxamide], the IC50 came out at 63.6 nM on Btk, 4680 nM against TEC and 3820 nM at panel of kinases. Further, the TEC/Btk at TEC is 74.

As for `C=CC(=O)N1CC[C@@H](Nc2n[nH]c3nccc(-c4ccc(CNC(=O)c5ccc(C6CC6)cc5)c(F)c4)c23)C1` [Compound 40, 4-cyclopropyl-N-{[2-fluoro-4-(3-{[(3R)-1-(prop-2-enoyl)pyrrolidin-3-yl]amino}-1H-pyrazolo[3,4-b]pyridin-4-yl)phenyl]methyl}benzamide], the IC50 on Btk is 1.27 nM; against TEC, 47 nM; at panel of kinases, 54 nM. Also, the TEC/Btk on TEC is 37.

As to `CC1(C(=O)N2CC[C@@H](Nc3n[nH]c4nccc(-c5ccc(CNC(=O)c6ccc(C7CC7)cc6)c(F)c5)c34)C2)COC1` [Compound 41, 4-cyclopropyl-N-{[2-fluoro-4-(3-{[(3R)-1-(3-methyloxetane-3-carbonyl)pyrrolidin-3-yl]amino}-1H-pyrazolo[3,4-b]pyridin-4-yl)phenyl]methyl}benzamide], the IC50 at Btk was 251 nM; against TEC, 3010 nM; on panel of kinases it was above 10000 nM. Besides, the TEC/Btk at TEC was found to be 12.

Regarding `CC(C)(C)c1ccc(C(=O)Nc2ccc(-c3ccnc4[nH]nc(N[C@@H]5CCNC5)c34)cc2F)cc1` [Compound 42, 4-tert-butyl-N-[2-fluoro-4-(3-{[(3R)-pyrrolidin-3-yl]amino}-1H-pyrazolo[3,4-b]pyridin-4-yl)phenyl]benzamide], the IC50 at Btk, on TEC and at panel of kinases was above 10000 nM in each case.

Take `C=CC(=O)N1CC[C@@H](Nc2n[nH]c3nccc(-c4ccc(CN5CCc6cc(C(C)(C)C)ccc6C5=O)c(F)c4)c23)C1` [Compound 43, 6-tert-butyl-2-{[2-fluoro-4-(3-{[(3R)-1-(prop-2-enoyl)pyrrolidin-3-yl]amino}-1H-pyrazolo[3,4-b]pyridin-4-yl)phenyl]methyl}-1,2,3,4-tetrahydroisoquinolin-1-one]: the IC50 was 2.76 nM at Btk, 599 nM on TEC and 394 nM on panel of kinases. The TEC/Btk at TEC is listed as 217.

As to `C=CC(=O)N1CC[C@H](Nc2n[nH]c3nccc(-c4ccc(CNC(=O)c5ccc(C(C)(C)C)cc5)c(F)c4)c23)C1` [Compound 44, (S)—N-(4-(3-((1-acryloylpyrrolidin-3-yl)amino)-1H-pyrazolo[3,4-b]pyridin-4-yl)-2-fluorobenzyl)-4-(tert-butyl)benzamide], the IC50 on Btk is 68.2 nM; against TEC it was 7940 nM; on panel of kinases, 5390 nM. Further, the TEC/Btk on TEC is recorded as 116.

Consider `C=CC(=O)N1CC[C@@H](Nc2n[nH]c3nccc(-c4ccc(NC(=O)c5ccc(C(C)(C)C)cc5)c(F)c4)c23)C1` [Compound 45], for which the results for the IC50 at Btk, against TEC and at panel of kinases were above 10000 nM, 1920 nM and 449 nM, respectively. Moreover, at TEC, the TEC/Btk is given as above 100.

Consider `C=CC(=O)N1CC[C@@H](Nc2n[nH]c3nccc(-c4ccc(CNC(=O)c5cccc(C(C)(C)C)c5)c(F)c4)c23)C1` [Compound 46, (R)—N-(4-(3-((1-acryloylpyrrolidin-3-yl)amino)-1H-pyrazolo[3,4-b]pyridin-4-yl)-2-fluorobenzyl)-3-(tert-butyl)benzamide], for which the results for the IC50 on Btk, at TEC and on panel of kinases were 8.55 nM, 182 nM and 91 nM, respectively. At TEC, the TEC/Btk came out at 21.

Take `C=CC(=O)N1CC[C@@H](Nc2n[nH]c3nccc(-c4ccc(CNC(=O)c5ccc(C(=C)C)cc5)c(F)c4)c23)C1` [Compound 47, (R)—N-(4-(3-((1-acryloylpyrrolidin-3-yl)amino)-1H-pyrazolo[3,4-b]pyridin-4-yl)-2-fluorobenzyl)-4-(prop-1-en-2-yl)benzamide]: the half-inhibitory concentration (IC50) on Btk was 682 nM; against TEC it was 2940 nM; at panel of kinases, 1830 nM. In addition, the TEC/Btk on TEC is listed as 4.

`C=CC(=O)N1CC[C@@H](Nc2n[nH]c3nccc(-c4ccc(CNC(=O)c5ccc(C(F)(F)F)cc5)c(F)c4)c23)C1` [Compound 48, (R)—N-(4-(3-((1-acryloylpyrrolidin-3-yl)amino)-1H-pyrazolo[3,4-b]pyridin-4-yl)-2-fluorobenzyl)-4-(trifluoromethyl)benzamide]: the values for the IC50 at Btk, at TEC and on panel of kinases were 0.798 nM, 65 nM and 46 nM, respectively. On TEC, the TEC/Btk is listed as 81.
